Test system: not given
Conditions: not given

First: COc1ccc(F)cc1/C=C1\CNC(=O)CN(S(=O)(=O)c2ccc(Cl)s2)C1=O
Second: COc1ccc(Cl)cc1CC1CNC(=O)CN(S(=O)(=O)c2ccc(Cl)cc2)C1=O (stereo not drawn) [Compound 29, 6-(5-chloro-2-methoxybenzyl)-4-[(4-chlorophenyl)sulfonyl]-1,4-diazepan-2,5-dione]
The melting point of the first is higher: 150 to 153 °C for the first, 110 to 112 °C for the second.

First: CC[C@@H](NC(=O)N1CC(=O)NC[C@@H](Cc2cc(Cl)ccc2OC)C1=O)c1cccc(C(=O)[O-])c1.[Na+]
Second: CC[C@@H](NC(=O)N1CC(=O)NC[C@@H](Cc2cc(Cl)ccc2OC)C1=O)c1cccc(C(=O)O)c1 [Compound 91, 3-[(1R)-1-({[(6R)-6-(5-chloro-2-methoxybenzyl)-3,7-dioxo-1,4-diazepan-1-yl]carbonyl}amino)propyl]benzoic Acid]
The melting point of the first is higher: 161 to 163 °C for the first, 121 to 123 °C for the second.

First: COC(=O)C[C@@H]1C(=O)NC[C@H](Cc2cc(F)ccc2OC)C(=O)N1S(=O)(=O)c1ccc(Cl)cc1
Second: COC(=O)COc1ccc(Cl)cc1CC1CNC(=O)CN(S(=O)(=O)c2ccc(Cl)cc2)C1=O (stereo not drawn)
The melting point of the first is lower: 73 to 76 °C for the first, 138 to 140 °C for the second.

Compared with `CC[C@@H](NC(=O)N1CC(=O)NCC(Cc2cc(Cl)ccc2OC)C1=O)C(=O)Nc1nnn[nH]1` (stereo partly drawn), `CC[C@@H](NC(=O)N1CC(=O)NCC(Cc2cc(Cl)ccc2OC)C1=O)C(=O)Nc1ccc(C)c(C(=O)O)c1` (stereo partly drawn) is lower in melting point: 141 to 142 °C for the first, 132 to 134 °C for the second.

Compared with `O=C(CN1CC(Cc2ccccc2)C(=O)N(S(=O)(=O)c2ccc(Cl)cc2)CC1=O)NCc1ccccc1` (stereo not drawn), `Cc1cccc(CC2CNC(=O)CN(S(=O)(=O)c3ccc(Cl)cc3)C2=O)c1` (stereo not drawn) is lower in melting point: 187 to 190 °C for the first, 64 to 66 °C for the second.

With `COc1ccc(Cl)cc1CC1CNC(=O)CN(C(=O)Nc2cccc(NC(C)=O)c2)C1=O` (stereo not drawn) the melting point was 130 to 131 °C.

For `N#Cc1ccc(S(=O)(=O)N2CC(=O)NC/C(=C\c3ccccc3)C2=O)cc1`, the melting point was 239 °C (dec.).

Test system: C3H/HeN mice
Conditions: 10 mg/kg orally once a day; 24 hours after DNFB application at fifth week; female C3H/HeN mice

First: COc1ccc(Cl)cc1CC1CNC(=O)CN(S(=O)(=O)c2ccc(Cl)cc2)C1=O (stereo not drawn) [Compound 29, 6-(5-chloro-2-methoxybenzyl)-4-[(4-chlorophenyl)sulfonyl]-1,4-diazepan-2,5-dione]
Second: COc1ccc(Cl)cc1CC1CNC(=O)CN(S(=O)(=O)c2ccc(Cl)c(N)c2)C1=O.Cl (stereo not drawn) [Compound 90, 4-[(3-amino-4-chlorophenyl)sulfonyl]-6-(5-chloro-2-methoxybenzyl)-1,4-diazepan-2,5-dione Hydrochloride]
The “inhibition rate of the skin reaction” value of the first is lower: 25.1% for the first, 31.0% for the second.

With `CC[C@@H](NC(=O)N1CC(=O)NC[C@@H](Cc2cc(Cl)ccc2OC)C1=O)c1cccc(C(=O)O)c1` [Compound 91, 3-[(1R)-1-({[(6R)-6-(5-chloro-2-methoxybenzyl)-3,7-dioxo-1,4-diazepan-1-yl]carbonyl}amino)propyl]benzoic Acid] the “inhibition rate of the skin reaction” value was 26.1%.

Source: US8049006B2, “7-membered ring compound and method of production and pharmaceutical application thereof” (Daiichi Sankyo Company, Limited, priority 2006, dated 2011)
